The subject of one data set is UMSCC23. Kind of data set: Inhibition of cell proliferation in human UMSCC23 cells for 24 hrs by Celltiter Glo assay. It counts as functional, cell-based.
For data set [1], the target named is T1, Threonine--tRNA ligase 1, cytoplasmic (Mus musculus) (UniProt Q9D0R2).
T1 sequence (whole entry): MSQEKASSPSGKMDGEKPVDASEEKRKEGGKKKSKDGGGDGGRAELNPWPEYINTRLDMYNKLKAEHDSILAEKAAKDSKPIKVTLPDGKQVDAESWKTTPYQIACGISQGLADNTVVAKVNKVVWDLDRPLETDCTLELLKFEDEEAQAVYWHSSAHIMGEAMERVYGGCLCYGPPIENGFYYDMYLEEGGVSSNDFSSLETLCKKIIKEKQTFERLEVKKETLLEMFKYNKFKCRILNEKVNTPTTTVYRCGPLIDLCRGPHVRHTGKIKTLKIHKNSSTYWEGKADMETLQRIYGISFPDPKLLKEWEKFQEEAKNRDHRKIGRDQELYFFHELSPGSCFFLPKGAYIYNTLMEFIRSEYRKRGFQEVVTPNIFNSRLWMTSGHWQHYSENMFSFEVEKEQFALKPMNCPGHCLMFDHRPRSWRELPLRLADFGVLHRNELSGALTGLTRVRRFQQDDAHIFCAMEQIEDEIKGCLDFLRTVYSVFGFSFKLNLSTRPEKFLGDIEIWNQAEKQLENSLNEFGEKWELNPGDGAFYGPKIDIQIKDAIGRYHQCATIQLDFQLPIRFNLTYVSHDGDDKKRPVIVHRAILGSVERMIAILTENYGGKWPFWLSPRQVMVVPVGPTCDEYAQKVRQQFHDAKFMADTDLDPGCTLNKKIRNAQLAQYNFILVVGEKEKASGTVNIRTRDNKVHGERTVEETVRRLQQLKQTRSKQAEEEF
To be noted: MEF, 5 uM.
Description: Inhibition of ThRs in mouse MEF cells expressing Gcn2 (-/-) assessed as effect on Gadd45beta mRNA level at 5 uM by RT-PCR analysis

Data set [2] deals with T1, Threonine--tRNA ligase 1, cytoplasmic (Mus musculus). The conditions noted are these: MEF, 5 uM. The source holds these as a separate data set.
Description: Inhibition of ThRs in mouse MEF cells expressing Gcn2 (-/-) assessed as effect on phosphorylated eIF2alpha level at 5 uM by immunoblot analysis
The test system of data set [3] is MEF. Kind of data set: Inhibition of cell proliferation in mouse MEF cells expressing eIF2alpha Ser51Ala mutant after 16 hrs Celltiter Glo assay. The format is functional, cell-based.
Data set [4] addresses T1, Threonine--tRNA ligase 1, cytoplasmic (Mus musculus). To be noted: MEF, 5 uM. The source holds these as a separate data set.
Description: Inhibition of ThRs in mouse MEF cells expressing Gcn2 (-/-) assessed as effect on Puma mRNA level at 5 uM by RT-PCR analysis
For data set [5] the target is unchanged. To be noted: MEF, 5 uM. The source holds these as a separate data set.
Description: Inhibition of ThRs in mouse MEF cells expressing Perk (-/-) assessed as effect on Chop level at 5 uM by immunoblot analysis
Data set [6] relates to UMSCC1. Put plainly: Effect on Bip/GRP78 mRNA level in human UMSCC1 cells at 5 uM after 6 hrs by RT-qPCR analysis. The format is functional, cell-based.
Another data set concerns A549. Kind of data set: Inhibition of cell proliferation in human A549 cells expressing BAX/BAK (-/-) after 24 hrs by CelltiterGlo assay. The format is functional, cell-based.
Data set [7] relates to MEF. Kind of data set: Inhibition of cell proliferation in mouse MEF cells expressing Atf4(-/-) after 16 hrs CelltiterGlo assay. It counts as functional, cell-based.
Data set [8] has as its target T2, Threonine--tRNA ligase 1, cytoplasmic (Homo sapiens) (UniProt P26639).
T2 sequence (whole entry): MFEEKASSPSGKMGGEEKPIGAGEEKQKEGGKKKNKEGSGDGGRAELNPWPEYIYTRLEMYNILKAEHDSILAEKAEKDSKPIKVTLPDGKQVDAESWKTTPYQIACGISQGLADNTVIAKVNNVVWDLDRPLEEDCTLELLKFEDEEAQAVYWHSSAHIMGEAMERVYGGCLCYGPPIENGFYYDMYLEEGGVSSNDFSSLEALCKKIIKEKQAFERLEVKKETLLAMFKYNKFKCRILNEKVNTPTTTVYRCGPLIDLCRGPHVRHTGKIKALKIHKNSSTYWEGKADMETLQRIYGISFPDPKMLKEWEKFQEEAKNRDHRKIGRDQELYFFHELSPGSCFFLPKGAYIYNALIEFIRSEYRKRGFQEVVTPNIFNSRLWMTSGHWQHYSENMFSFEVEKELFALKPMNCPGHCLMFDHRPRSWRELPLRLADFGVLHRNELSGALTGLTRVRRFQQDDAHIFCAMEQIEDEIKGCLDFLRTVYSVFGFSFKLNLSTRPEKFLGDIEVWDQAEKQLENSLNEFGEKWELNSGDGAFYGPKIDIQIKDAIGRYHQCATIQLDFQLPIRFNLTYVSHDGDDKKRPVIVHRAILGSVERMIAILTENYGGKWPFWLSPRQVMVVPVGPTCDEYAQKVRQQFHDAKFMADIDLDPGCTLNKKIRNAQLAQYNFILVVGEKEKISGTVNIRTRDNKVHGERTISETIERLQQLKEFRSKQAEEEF
Put plainly: Inhibition of ThRS in human UMSCC1 cells assessed as increase in DNA damaging-related gene expression at 10 uM by RT-PCR analysis. The format is cell-based.

In data set [9] the test system is MEF. Put plainly: Inhibition of cell proliferation in mouse MEF cells expressing Hri(-/-) after 16 hrs CelltiterGlo assay. The format is functional, cell-based.
Data set [10] has as its target T1, Threonine--tRNA ligase 1, cytoplasmic (Mus musculus). The conditions noted are these: MEF, 5 uM. This is another data set of the same source.
Description: Inhibition of ThRs in mouse MEF cells expressing Gcn2 (-/-) assessed as effect on Noxa mRNA level at 5 uM by RT-PCR analysis
For data set [11], the target named is T2, Threonine--tRNA ligase 1, cytoplasmic (Homo sapiens). Put plainly: Inhibition of ThRS in human UMSCC1 cells assessed as increase in apoptosis-related gene expression at 10 uM by RT-PCR analysis. It counts as cell-based.
Data set [12] addresses T1, Threonine--tRNA ligase 1, cytoplasmic (Mus musculus). The conditions noted are these: MEF, 5 uM. This is another data set of the same source.
Description: Inhibition of ThRs in mouse MEF cells expressing Gcn2 (-/-) assessed as effect on Chop level at 5 uM by immunoblot analysis
Data set [13] shares this target. To be noted: MEF, 5 uM. The source holds these as a separate data set.
Description: Inhibition of ThRs in mouse MEF cells expressing Gcn2 (-/-) assessed as effect on Dr5 mRNA level at 5 uM by RT-PCR analysis
The subject of data set [14] is MEF. Put plainly: Inhibition of cell proliferation in mouse MEF cells expressing Pkr(-/-) after 16 hrs CelltiterGlo assay. The format is functional, cell-based.
For data set [15], the target named is T2, Threonine--tRNA ligase 1, cytoplasmic (Homo sapiens). Kind of data set: Inhibition of ThRS in human UMSCC1 cells assessed as increase in ATF3 mRNA level at 5 uM after 6 hrs by RT-qPCR analysis. The format is cell-based.
Data set [16] has the same target. Put plainly: Inhibition of ThRS in human UMSCC1 cells assessed as increase in ATF4 mRNA level at 5 uM after 6 hrs by RT-qPCR analysis. The format is cell-based.
Data set [17] concerns UMSCC1. Put plainly: Inhibition of cell proliferation in human UMSCC1 cells for 24 hrs by Celltiter Glo assay. It counts as functional, cell-based.
For another data set, the system named is UMSCC14A. Kind of data set: Inhibition of cell proliferation in human UMSCC14A cells for 24 hrs by Celltiter Glo assay. The format is functional, cell-based.
For data set [18], the target named is T2, Threonine--tRNA ligase 1, cytoplasmic (Homo sapiens). Kind of data set: Inhibition of ThRS in human UMSCC1 cells assessed as increase in CHOP mRNA level at 5 uM after 6 hrs by RT-qPCR analysis. It counts as cell-based.
Data set [19] shares this target. Put plainly: Inhibition of ThRS in human UMSCC1 cells assessed as increase in XBP1 splicing by RT-PCR analysis. The format is cell-based.
Data set [20] in a line: Cytotoxicity against HEK cells after 24 hrs by CelltiterGlo assay. The format is cell-based. To be noted: human, hek293, 24 h.
The target of data set [21] is T1, Threonine--tRNA ligase 1, cytoplasmic (Mus musculus). The conditions noted are these: MEF, 5 uM. This is another data set of the same source.
Description: Inhibition of ThRs in mouse MEF cells expressing Gcn2 (-/-) assessed as effect on Trb3 mRNA level at 5 uM by RT-PCR analysis
The target in data set [22] is T2, Threonine--tRNA ligase 1, cytoplasmic (Homo sapiens). Kind of data set: Inhibition of ThRS in human UMSCC1 cells assessed as increase in UPR-related gene expression at 10 uM by RT-PCR analysis. The format is cell-based.
In data set [23] the target is T1, Threonine--tRNA ligase 1, cytoplasmic (Mus musculus). The conditions noted are these: MEF, 5 uM. This is another data set of the same source.
Description: Inhibition of ThRs in mouse MEF cells expressing Perk (-/-) assessed as effect on phosphorylated eIF2alpha level at 5 uM by immunoblot analysis
The subject of data set [24] is MEF. Put plainly: Inhibition of cell proliferation in mouse MEF cells expressing Chop(-/-) after 16 hrs Celltiter Glo assay. The format is functional, cell-based.

Active and inactive are the calls of the source. No cut-off for these calls is given here.

`C[C@@H]1C[C@H](C)C[C@H](C)[C@@H](O)CC(=O)O[C@H]([C@@H]2CCC[C@H]2C(=O)O)C/C=C/C=C(/C#N)[C@H](O)[C@@H](C)C1` [BORRELIDIN]: the inhibition entry in the data set on UMSCC23, with MEF [3], in the data set on UMSCC1 [17] and in the data set on UMSCC14A was “Active” each time. The inhibition entry (in data set [1]; in data set [2]; in data set [4]; in data set [5]; with A549; with MEF [7]) was “inactive” each time. In addition, the inhibition result (with MEF [9]; in data set [10]; in [12]; in [13]; in the data set on MEF [14]; in data set [21]) was “inactive” throughout. The inhibition entry (in data set [23]; with MEF [24]) was “inactive” in each case. In addition, the result with UMSCC1 [6] was inactive. Further, the result in data set [8], in [11], in data set [15], in [16], in data set [18] and in data set [19] was Active. Moreover, in data set [22], the result was Active. Further, in [20], the Activity entry is “Toxic”.
As for `C[C@@H]1C[C@H](C)C[C@H](C)[C@@H](O)CC(=O)O[C@H]([C@@H]2CCC[C@H]2C(N)=O)C/C=C/C=C(/C#N)[C@H](O)[C@@H](C)C1`, the inhibition result with UMSCC23, with UMSCC1 [17] and in the data set on UMSCC14A was “Active” in each case. The result (with UMSCC1 [6]; in data set [8]; in data set [11]; in data set [22]) was inactive. The outcome in [15], in [16], in data set [18] and in data set [19] was Active. Moreover, in data set [20], the Activity entry is listed as “Toxic”.
`CC(=O)NC/C1=C/C=C/C[C@@H]([C@@H]2CCC[C@H]2C(N)=O)OC(=O)C[C@H](O)[C@@H](C)C[C@@H](C)C[C@@H](C)C[C@H](C)[C@H]1O`: the inhibition result with UMSCC23, in the data set on UMSCC1 [17] and in the data set on UMSCC14A was “inactive” throughout. Moreover, the result in [8], in [11], in [15], in [16], in data set [18] and in data set [19] was inactive. The outcome in data set [22] was inactive. In addition, in data set [20], the Activity entry is “Toxic”.

The record behind these values is ChEMBL document CHEMBL3751685, “Borrelidin Induces the Unfolded Protein Response in Oral Cancer Cells and Chop-Dependent Apoptosis” (ACS Med Chem Lett, 2015).
